Activity calls are given as the source filed them. No cut-off for these calls is given here.
How the values were obtained:
[1] = system: Escherichia coli; assay: Antibacterial activity against Escherichia coli ATCC 25922 after 18 hrs in presence of NaCl by CLSI based broth microdilution method (reference value: 8 microM); assay type: functional; settings: ATCC 25922, 18 h
[2] = Cytotoxicity against mouse RAW264.7 cells assessed as cell proliferation at 4 uM after 1 hr by MTT assay relative to control; assay type: cell-based; settings: read-out: Activity
[3] = system: Staphylococcus aureus; assay: Antibacterial activity against Staphylococcus aureus ATCC 25923 after 18 hrs in presence of FeCl3 by CLSI based broth microdilution method (reference value: 8 microM); assay type: functional; settings: ATCC 25923, 18 h
[4] = system: Staphylococcus aureus; assay: Antibacterial activity against Staphylococcus aureus ATCC 25923 after 18 hrs in presence of MgCl2 by CLSI based broth microdilution method (reference value: 8 microM); assay type: functional; settings: ATCC 25923, 18 h
[5] = system: Escherichia coli; assay: Ratio of MIC for Escherichia coli ATCC 25922 preincubated for 1 hr in presence of 10% mouse serum and measured after 18 hrs to MIC for antibacterial activity against Escherichia coli ATCC 25922 after 18 hrs; assay type: functional
[6] = system: Staphylococcus aureus; assay: Antibiofilm activity against Staphylococcus aureus ATCC 25923 at 1 to 2 times of MIC after 24 hrs by crystal violet staining based assay; assay type: functional, organism-based
[7] = system: Escherichia coli; assay: Antibacterial activity against Escherichia coli ATCC 25922 at 0.5 times MIC incubated for 18 hrs measured for 15 passages by CLSI based broth microdilution method; assay type: functional, organism-based
[8] = system: Escherichia coli; assay: Antibacterial activity against Escherichia coli ATCC 25922 after 18 hrs in presence of KCl by CLSI based broth microdilution method (reference value: 8 microM); assay type: functional; settings: ATCC 25922, 18 h
[9] = system: Escherichia coli; assay: Antimicrobial activity against Escherichia coli ATCC 25922 preincubated for 6 hrs in presence of 10% mouse serum and measured after 18 hrs by CLSI-based broth microdilution assay (reference value: 8 microM); assay type: functional
[10] = system: Escherichia coli; assay: Antibacterial activity against Escherichia coli ATCC 25922 after 18 hrs in presence of FeCl3 by CLSI based broth microdilution method (reference value: 8 microM); assay type: functional; settings: ATCC 25922, 18 h
[11] = system: Klebsiella pneumoniae; assay: Potentiation of rifampicin-induced antibacterial activity against Klebsiella pneumoniae ATCC 700603 assessed as FICI after 18 hrs by checker board assay; assay type: functional
[12] = system: Escherichia coli; assay: Antibacterial activity against Escherichia coli ATCC 25922 after 18 hrs in presence of MgCl2 by CLSI based broth microdilution method (reference value: 8 microM); assay type: functional; settings: ATCC 25922, 18 h
[13] = system: Escherichia coli; assay: Antibiofilm activity against Escherichia coli ATCC 25922 assessed as reduction in biofilm inhibition at MIC after 24 hrs by crystal violet staining based assay relative to control; assay type: functional
[14] = system: Staphylococcus aureus; assay: Antibacterial activity against Staphylococcus aureus ATCC 25923 after 18 hrs in presence of NaCl by CLSI based broth microdilution method (reference value: 8 microM); assay type: functional; settings: ATCC 25923, 18 h
[15] = system: Escherichia coli; assay: Induction of membrane disruption in Escherichia coli ATCC 25922 assessed as fracture in membrane at 4 times of MIC after 2 hrs by SEM analysis; assay type: functional, organism-based
[16] = system: Escherichia coli; assay: Antimicrobial activity against Escherichia coli ATCC 25922 preincubated for 1 hr in presence of 10% mouse serum and measured after 18 hrs by CLSI-based broth microdilution assay (reference value: 8 microM); assay type: functional
[17] = system: Escherichia coli; assay: Antimicrobial activity against Escherichia coli ATCC 25922 at 1 mM preincubated for 6 hrs in presence of 2 ug/ml chymotrypsin and measured after 18 hrs by microplate reader analysis; assay type: functional, organism-based
[18] = system: Staphylococcus aureus; assay: Antibacterial activity against Staphylococcus aureus ATCC 25923 after 18 hrs in presence of KCl by CLSI based broth microdilution method (reference value: 8 microM); assay type: functional; settings: ATCC 25923, 18 h
[19] = system: Staphylococcus aureus; assay: Antibacterial activity against Staphylococcus aureus ATCC 25923 after 18 hrs in presence of KCl by CLSI based broth microdilution method (reference value: 128 microM); assay type: functional; settings: ATCC 25923, 18 h
[20] = system: Escherichia coli; assay: Antibacterial activity against Escherichia coli ATCC 25922 after 18 hrs in presence of NaCl by CLSI based broth microdilution method (reference value: 16 microM); assay type: functional; settings: ATCC 25922, 18 h
[21] = system: Escherichia coli; assay: Antimicrobial activity against Escherichia coli ATCC 25922 preincubated for 1 hr in presence of 10% mouse serum and measured after 18 hrs by CLSI-based broth microdilution assay (reference value: 16 microM); assay type: functional
[22] = system: Escherichia coli; assay: Antibacterial activity against Escherichia coli ATCC 25922 after 18 hrs in presence of MgCl2 by CLSI based broth microdilution method (reference value: 16 microM); assay type: functional; settings: ATCC 25922, 18 h
[23] = Cytotoxicity against mouse RAW264.7 cells assessed as cell proliferation at 64 uM after 1 hr by MTT assay relative to control; assay type: cell-based; settings: read-out: Activity
[24] = system: Escherichia coli; assay: Antibacterial activity against Escherichia coli ATCC 25922 after 18 hrs in presence of FeCl3 by CLSI based broth microdilution method (reference value: 16 microM); assay type: functional; settings: ATCC 25922, 18 h
[25] = system: Escherichia coli; assay: Antimicrobial activity against Escherichia coli ATCC 25922 preincubated for 6 hrs in presence of 10% mouse serum and measured after 18 hrs by CLSI-based broth microdilution assay (reference value: 16 microM); assay type: functional
[26] = system: Escherichia coli; assay: Antibacterial activity against Escherichia coli ATCC 25922 after 18 hrs in presence of KCl by CLSI based broth microdilution method (reference value: 16 microM); assay type: functional; settings: ATCC 25922, 18 h
[27] = system: Staphylococcus aureus; assay: Antibiofilm activity against Staphylococcus aureus ATCC 25923 at 2 times of MIC after 24 hrs by crystal violet staining based assay; assay type: functional, organism-based
[28] = system: Escherichia coli; assay: Antibiofilm activity against Escherichia coli ATCC 25922 assessed as reduction in biofilm inhibition at 0.5 to 1 times of MIC after 24 hrs by crystal violet staining based assay; assay type: functional, organism-based
[29] = system: Pseudomonas aeruginosa; assay: Antibiofilm activity against Pseudomonas aeruginosa ATCC 27853 at 1 to 2 times of MIC after 24 hrs by crystal violet staining based assay; assay type: functional, organism-based

SMILES	Ratio [5]	inhibition [6]	Activity [7]	fractional inhibitory concentration index (FICI) [11]	inhibition (INH) [13] [%]	Activity [15]	Activity [17]	MIC [20] [µM]	MIC [21] [µM]	MIC [22] [µM]	MIC [24] [µM]	MIC [25] [µM]	MIC [26] [µM]	further results
CCCCCCCCCC(=O)NC(Cc1cn(CCCC[C@H](NC(C)=O)C(=O)NCC(=O)N[C@@H](CC(C)C)C(=O)N[C@@H](CC(C)C)C(=O)N[C@H](CCCCN)C(=O)N[C@@H](CCCNC(=N)N)C(=O)N[C@H](C(=O)N[C@H](CCCCN)C(=O)N[C@H](C(=O)N[C@@H](CC(C)C)C(=O)N[C@@H](CC(C)C)C(N)=O)[C@@H](C)O)[C@@H](C)CC)nn1)C(=O)NCC(=O)N[C@@H](CC(C)C)C(=O)N[C@@H](CC(C)C)C(=O)N[C@H](CCCCN)C(=O)N[C@@H](CCCNC(=N)N)C(=O)N[C@H](C(=O)N[C@H](CCCCN)C(=O)N[C@H](C(=O)N[C@@H](CC(C)C)C(=O)N[C@@H](CC(C)C)C(N)=O)[C@@H](C)O)[C@@H](C)CC (some centres not stated)	1	Active	Active	0.5	>50	Active	Active							MIC [1]: 8 µM; viability at 1 h, 4 µM [2]: < 80%; MIC [3]: 8 µM; MIC [4]: 4 µM; MIC [8]: 16 µM; MIC [9]: 16 µM; MIC [10]: 4 µM; MIC [12]: 16 µM; MIC [14]: 8 µM; MIC [16]: 8 µM; MIC [18]: 16 µM
CCCC(=O)NC(Cc1cn(CCCC[C@H](NC(C)=O)C(=O)NCC(=O)N[C@@H](CC(C)C)C(=O)N[C@@H](CC(C)C)C(=O)N[C@H](CCCCN)C(=O)N[C@@H](CCCNC(=N)N)C(=O)N[C@H](C(=O)N[C@H](CCCCN)C(=O)N[C@H](C(=O)N[C@@H](CC(C)C)C(=O)N[C@@H](CC(C)C)C(N)=O)[C@@H](C)O)[C@@H](C)CC)nn1)C(=O)NCC(=O)N[C@@H](CC(C)C)C(=O)N[C@@H](CC(C)C)C(=O)N[C@H](CCCCN)C(=O)N[C@@H](CCCNC(=N)N)C(=O)N[C@H](C(=O)N[C@H](CCCCN)C(=O)N[C@H](C(=O)N[C@@H](CC(C)C)C(=O)N[C@@H](CC(C)C)C(N)=O)[C@@H](C)O)[C@@H](C)CC (some centres not stated)	1	Active	Active	0.3125	>50	Active	Active	128	16	32	16	16	16	MIC [19]: 128 µM; viability at 1 h, 64 µM [23]: > 80%
CCCCCCCCCCCC(=O)NCC(=O)N[C@@H](CC(C)C)C(=O)N[C@@H](CC(C)C)C(=O)N[C@H](CCCCN)C(=O)N[C@@H](CCCNC(=N)N)C(=O)N[C@H](C(=O)N[C@H](CCCCN)C(=O)N[C@H](C(=O)N[C@@H](CC(C)C)C(=O)N[C@@H](CC(C)C)C(N)=O)[C@@H](C)O)[C@@H](C)CC	1		Active	0.5625		Active	Active	16	16	16	4	32	4	inhibition [27]: Active; inhibition [28]: Active; inhibition [29]: Active

Reference: ChEMBL document CHEMBL4359906, “Design and synthesis of new N-terminal fatty acid modified-antimicrobial peptide analogues with potent in vitro biological activity” (Eur J Med Chem, 2019)
